Experimental data from patent US20230398130A1, “METHODS AND COMPOSITIONS FOR DIFFERENTIATING STEM CELLS” (Massachusetts Institute of Technology, priority 2020, published 2023).

Tests used:
ISC-enriched organoids [1] = assay: Primary screen, 384-well 2.5-D organoid differentiation (ENR+CD, 6 days, Target Selective Inhibitor Library, vs whole-plate median): ATP (CellTiter-Glo 3D, CTG); conditions: for Z.CTG (standard z score) / Dose.FC.CTG (log 2 fold change) / Dose.FC.CTG / Z.CTG: primary screen; for Dose.FC.CTG (log 2 fold change): vs plate median; for Dose.FC.CTG: ENR+CD 6 days, FC vs plate median; for Z.CTG: standard z score of FC
ISC-enriched organoids [2] = assay: Primary screen, 384-well 2.5-D organoid differentiation (ENR+CD, 6 days): basal lysozyme secretion (LYZ.NS); format: cell-based, murine; conditions: for Z.LYZ.NS (standard z score) / Dose.FC.LYZ.NS (log 2 fold change) / Dose.FC.LYZ.NS / Z.LYZ.NS: primary screen; for Dose.FC.LYZ.NS (log 2 fold change): vs plate median; for Dose.FC.LYZ.NS: ENR+CD 6 days, FC vs plate median; for Z.LYZ.NS: standard z score of FC
From the text: (§1) High-throughput screening.

ISC-enriched organoids [3] = assay: Primary screen, 384-well 2.5-D organoid differentiation (ENR+CD, 6 days): carbachol-induced lysozyme secretion (LYZ.S); format: cell-based, murine; conditions: for Dose.FC.LYZ.S (log 2 fold change) / Dose.FC.LYZ.S: primary screen; for Dose.FC.LYZ.S (log 2 fold change): vs plate median; for Dose.FC.LYZ.S: ENR+CD 6 days, FC vs plate median
From the text: as §1

[4] = dose 0.08 uM (1st of 4 lines per treatment; dose not printed in this part)
[5] = dose 0.40 uM (2nd of 4 lines per treatment; dose not printed in this part)
[6] = dose 2.00 uM (3rd of 4 lines per treatment; dose not printed in this part)
[7] = dose 10.00 uM (4th of 4 lines per treatment; dose not printed in this part)

Cc1cc(Nc2ccc(NC(=O)c3ccc(Nc4ccnc5ccccc45)cc3)cc2)nc(N)n1 [SGI-1027]
Z.CTG (standard z score) (ISC-enriched organoids [1]; Dose 0.08 uM): 0.583 | Dose.FC.CTG (log 2 fold change) (ISC-enriched organoids [1]; Dose 0.08 uM): 0.244 | Z.CTG (standard z score) (ISC-enriched organoids [1]; Dose 0.40 uM): 0.712 | Dose.FC.CTG (log 2 fold change) (ISC-enriched organoids [1]; Dose 0.40 uM): 0.298 | Z.CTG (standard z score) (ISC-enriched organoids [1]; Dose 2.00 uM): 0.412 | Dose.FC.CTG (log 2 fold change) (ISC-enriched organoids [1]; Dose 2.00 uM): 0.172 | Z.CTG (standard z score) (ISC-enriched organoids [1]; Dose 10.00 uM): 0.125 | Dose.FC.CTG (log 2 fold change) (ISC-enriched organoids [1]; Dose 10.00 uM): 0.052 | Z.LYZ.NS (standard z score) (ISC-enriched organoids [2]; Dose 0.08 uM): 0.528 | Dose.FC.LYZ.NS (log 2 fold change) (ISC-enriched organoids [2]; Dose 0.08 uM): 0.061 | Z.LYZ.NS (standard z score) (ISC-enriched organoids [2]; Dose 0.40 uM): 0.735 | Dose.FC.LYZ.NS (log 2 fold change) (ISC-enriched organoids [2]; Dose 0.40 uM): 0.084 | Z.LYZ.NS (standard z score) (ISC-enriched organoids [2]; Dose 2.00 uM): 1.123 | Dose.FC.LYZ.NS (log 2 fold change) (ISC-enriched organoids [2]; Dose 2.00 uM): 0.129 | Z.LYZ.NS (standard z score) (ISC-enriched organoids [2]; Dose 10.00 uM): −0.046 | Dose.FC.LYZ.NS (log 2 fold change) (ISC-enriched organoids [2]; Dose 10.00 uM): −0.005 | Dose.FC.LYZ.S (log 2 fold change) (ISC-enriched organoids [3]; Dose 0.08 uM): 0.060 | Dose.FC.LYZ.S (log 2 fold change) (ISC-enriched organoids [3]; Dose 0.40 uM): 0.145 | Dose.FC.LYZ.S (log 2 fold change) (ISC-enriched organoids [3]; Dose 2.00 uM): 0.094 | Dose.FC.LYZ.S (log 2 fold change) (ISC-enriched organoids [3]; Dose 10.00 uM): 0.018

COc1cc(OC2CCN(C)CC2)ccc1Nc1ncc2c(n1)n(C1CCCC1)c(=O)n2C [AZ 3146]
Dose.FC.CTG (ISC-enriched organoids [1]; dose 0.08 uM): −0.130 log 2 fold change | Z.CTG (ISC-enriched organoids [1]; dose 0.08 uM): −0.310 | Dose.FC.CTG (ISC-enriched organoids [1]; dose 0.40 uM): −0.262 log 2 fold change | Z.CTG (ISC-enriched organoids [1]; dose 0.40 uM): −0.626 | Dose.FC.CTG (ISC-enriched organoids [1]; dose 2.00 uM): −0.369 log 2 fold change | Z.CTG (ISC-enriched organoids [1]; dose 2.00 uM): −0.881 | Dose.FC.CTG (ISC-enriched organoids [1]; dose 10.00 uM): −1.168 log 2 fold change | Z.CTG (ISC-enriched organoids [1]; dose 10.00 uM): −2.789 | Dose.FC.LYZ.NS (ISC-enriched organoids [2]; dose 0.08 uM): 0.073 log 2 fold change | Z.LYZ.NS (ISC-enriched organoids [2]; dose 0.08 uM): 0.639 | Dose.FC.LYZ.NS (ISC-enriched organoids [2]; dose 0.40 uM): −0.038 log 2 fold change | Z.LYZ.NS (ISC-enriched organoids [2]; dose 0.40 uM): −0.327 | Dose.FC.LYZ.NS (ISC-enriched organoids [2]; dose 2.00 uM): −0.079 log 2 fold change | Z.LYZ.NS (ISC-enriched organoids [2]; dose 2.00 uM): −0.687 | Dose.FC.LYZ.NS (ISC-enriched organoids [2]; dose 10.00 uM): −0.281 log 2 fold change | Z.LYZ.NS (ISC-enriched organoids [2]; dose 10.00 uM): −2.447 | Dose.FC.LYZ.S (ISC-enriched organoids [3]; dose 0.08 uM): 0.049 log 2 fold change | Dose.FC.LYZ.S (ISC-enriched organoids [3]; dose 0.40 uM): −0.067 log 2 fold change | Dose.FC.LYZ.S (ISC-enriched organoids [3]; dose 2.00 uM): −0.130 log 2 fold change | Dose.FC.LYZ.S (ISC-enriched organoids [3]; dose 10.00 uM): −0.422 log 2 fold change

CN1CCc2cc3c(cc2[C@H]1[C@@H]1OC(=O)c2c1ccc1c2OCO1)OCO3 [(+)-Bicuculline]
SSMD.CTG_Rep (strictly standardized mean difference) (ISC-enriched organoids [1]; [4]): 0.472 | SSMD.CTG_Rep (strictly standardized mean difference) (ISC-enriched organoids [1]; [5]): −0.078 | SSMD.CTG_Rep (strictly standardized mean difference) (ISC-enriched organoids [1]; [6]): −0.237 | SSMD.CTG_Rep (strictly standardized mean difference) (ISC-enriched organoids [1]; [7]): −0.405 | Dose.FC.CTG (ISC-enriched organoids [1]; dose 0.08 uM): 0.318 log 2 fold change | Z.CTG (ISC-enriched organoids [1]; dose 0.08 uM): 0.760 | Dose.FC.CTG (ISC-enriched organoids [1]; dose 0.40 uM): −0.029 log 2 fold change | Z.CTG (ISC-enriched organoids [1]; dose 0.40 uM): −0.069 | Dose.FC.CTG (ISC-enriched organoids [1]; dose 2.00 uM): −0.166 log 2 fold change | Z.CTG (ISC-enriched organoids [1]; dose 2.00 uM): −0.396 | Dose.FC.CTG (ISC-enriched organoids [1]; dose 10.00 uM): −0.132 log 2 fold change | Z.CTG (ISC-enriched organoids [1]; dose 10.00 uM): −0.315 | SSMD.LYZ.NS_Rep (strictly standardized mean difference) (ISC-enriched organoids [2]; [4]): 0.481 | SSMD.LYZ.NS_Rep (strictly standardized mean difference) (ISC-enriched organoids [2]; [5]): 0.106 | SSMD.LYZ.NS_Rep (strictly standardized mean difference) (ISC-enriched organoids [2]; [6]): 0.276 | SSMD.LYZ.NS_Rep (strictly standardized mean difference) (ISC-enriched organoids [2]; [7]): 0.175 | Dose.FC.LYZ.NS (ISC-enriched organoids [2]; dose 0.08 uM): 0.092 log 2 fold change | Z.LYZ.NS (ISC-enriched organoids [2]; dose 0.08 uM): 0.805 | Dose.FC.LYZ.NS (ISC-enriched organoids [2]; dose 0.40 uM): 0.013 log 2 fold change | Z.LYZ.NS (ISC-enriched organoids [2]; dose 0.40 uM): 0.116 | Dose.FC.LYZ.NS (ISC-enriched organoids [2]; dose 2.00 uM): 0.031 log 2 fold change | Z.LYZ.NS (ISC-enriched organoids [2]; dose 2.00 uM): 0.270 | Dose.FC.LYZ.NS (ISC-enriched organoids [2]; dose 10.00 uM): 0.020 log 2 fold change | Z.LYZ.NS (ISC-enriched organoids [2]; dose 10.00 uM): 0.176 | SSMD.LYZ.S_Rep (strictly standardized mean difference) (ISC-enriched organoids [3]; [4]): 0.545 | Z.LYZ.S (standard z score) (ISC-enriched organoids [3]; [4]): 1.005 | SSMD.LYZ.S_Rep (strictly standardized mean difference) (ISC-enriched organoids [3]; [5]): 0.216 | Z.LYZ.S (standard z score) (ISC-enriched organoids [3]; [5]): 0.221 | SSMD.LYZ.S_Rep (strictly standardized mean difference) (ISC-enriched organoids [3]; [6]): −0.164 | Z.LYZ.S (standard z score) (ISC-enriched organoids [3]; [6]): −0.169 | SSMD.LYZ.S_Rep (strictly standardized mean difference) (ISC-enriched organoids [3]; [7]): 0.264 | Z.LYZ.S (standard z score) (ISC-enriched organoids [3]; [7]): 0.465 | Dose.FC.LYZ.S (ISC-enriched organoids [3]; dose 0.08 uM): 0.155 log 2 fold change | Dose.FC.LYZ.S (ISC-enriched organoids [3]; dose 0.40 uM): 0.034 log 2 fold change | Dose.FC.LYZ.S (ISC-enriched organoids [3]; dose 2.00 uM): −0.026 log 2 fold change | Dose.FC.LYZ.S (ISC-enriched organoids [3]; dose 10.00 uM): 0.072 log 2 fold change
